Laboratory results: patent US10385057B2, “Pyrazole compounds and methods of making and using same” (Lundbeck La Jolla Research Center, Inc., priority 2015, dated 2019)

How the values were obtained:
FAAH = target: T1, FAAH (Mus musculus, UniProt O08914); test: In vitro competitive activity-based protein profiling, mouse FAAH; assay type: biochemical; settings: for inhibition at 1 µM: read-out: FAAH % inh. 1 μM (mouse)
T1 construct: mouse brain membrane fraction or cell lysates for mouse assays; from tissue
T1 sequence (O08914 1-579): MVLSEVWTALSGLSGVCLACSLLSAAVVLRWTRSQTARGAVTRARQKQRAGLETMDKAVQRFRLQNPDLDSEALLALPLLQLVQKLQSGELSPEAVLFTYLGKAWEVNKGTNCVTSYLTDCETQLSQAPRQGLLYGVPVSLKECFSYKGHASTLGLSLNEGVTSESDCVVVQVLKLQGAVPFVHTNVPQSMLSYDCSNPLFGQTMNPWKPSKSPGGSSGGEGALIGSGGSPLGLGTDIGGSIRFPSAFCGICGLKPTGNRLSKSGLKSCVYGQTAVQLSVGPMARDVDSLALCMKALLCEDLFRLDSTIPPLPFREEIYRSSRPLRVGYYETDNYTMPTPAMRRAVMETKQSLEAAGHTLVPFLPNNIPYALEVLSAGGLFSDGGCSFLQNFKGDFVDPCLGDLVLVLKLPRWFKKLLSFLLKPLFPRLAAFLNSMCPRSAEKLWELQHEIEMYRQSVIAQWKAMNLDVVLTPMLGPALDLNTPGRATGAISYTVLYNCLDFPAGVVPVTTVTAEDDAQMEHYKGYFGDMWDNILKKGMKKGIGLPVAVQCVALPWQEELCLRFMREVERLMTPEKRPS
Summary of the method: (§1)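 Activity measured as fluorescent gel-band intensity of MAGL and FAAH after SDS-PAGE. Before labelling with FP-Rh or HT-01 (30 min, 37 °C), proteomes at 1.0 mg/mL (mouse brain membrane or lysates; human prefrontal cortex or cell membranes) were exposed to varying inhibitor concentrations for 30 min at 37 °C.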

MAGL = target: T2, MAGL (Mus musculus, UniProt O35678); test: In vitro competitive activity-based protein profiling, mouse MAGL; assay type: biochemical; settings: for inhibition at 1 µM: read-out: MAGL % inh. 1 μM (mouse)
T2 construct: mouse brain membrane fraction or cell lysates for mouse assays; from tissue
T2 sequence (O35678 1-303): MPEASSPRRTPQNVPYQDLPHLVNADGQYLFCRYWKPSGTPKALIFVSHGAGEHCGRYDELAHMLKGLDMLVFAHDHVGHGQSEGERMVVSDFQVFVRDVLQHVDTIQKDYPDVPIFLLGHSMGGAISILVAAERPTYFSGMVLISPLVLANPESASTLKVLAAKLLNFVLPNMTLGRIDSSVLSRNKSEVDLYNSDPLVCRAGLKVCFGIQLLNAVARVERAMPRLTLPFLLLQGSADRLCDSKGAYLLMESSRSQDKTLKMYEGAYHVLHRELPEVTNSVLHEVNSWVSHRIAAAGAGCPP
Summary of the method: as §1

Row | SMILES | inhibition at 1 µM (FAAH) [%] | inhibition at 1 µM (MAGL) [%] | IC50 (FAAH) [nM] | IC50 (MAGL) [nM]
1 | CN(Cc1ccccc1Cl)[C@H]1C[C@@H]2CN(C(=O)n3cc(C(=O)N4CCN(C5CC5)CC4)cn3)C[C@@H]2C1 [Example 95, (trans-5-((2-chlorobenzyl)(methyl)amino)hexahydrocyclopenta[c]pyrrol-2(1H)-yl)(4-(4-cyclopropylpiperazine-1-carbonyl)-1H-pyrazol-1-yl)methanone] | 0 to 25 | ≥ 75 | – | –
2 | CN(Cc1ccc(C(F)(F)F)cc1)[C@@H]1C[C@@H]2CN(C(=O)n3cc(C(=O)N4CCCC4)cn3)C[C@@H]2C1 [Example 97, (cis-5-(methyl(4-(trifluoromethyl)benzyl)amino)hexahydrocyclopenta[c]pyrrol-2(1H)-yl)(4-(pyrrolidine-1-carbonyl)-1H-pyrazol-1-yl)methanone] | ≥ 75 | 50 to 75 | – | –
3 | CN(Cc1ccc(C(F)(F)F)cc1)[C@@H]1C[C@@H]2CN(C(=O)n3cc(C(=O)N4CCN(C5CC5)CC4)cn3)C[C@@H]2C1 [Example 98, (4-cyclopropylpiperazin-1-yl)(1-(cis-5-(methyl(4-(trifluoromethyl)benzyl)amino)octahydrocyclopenta[c]pyrrole-2-carbonyl)-1H-pyrazol-4-yl)methanone] | 25 to 50 | ≥ 75 | – | –
4 | O=C(N1CC2CN(Cc3ccc(Cl)cc3N3CCOCC3)CC2C1)n1cc(Cl)cn1 (centres unmarked) [Example 99, (4-chloro-1H-pyrazol-1-yl)(5-(4-chloro-2-morpholinobenzyl)hexahydropyrrolo[3,4-c]pyrrol-2(1H)-yl)methanone] | ≥ 75 | ≥ 75 | ≤ 100 | ≤ 100
5 | O=C(N1CC2CN(Cc3ccc(F)cc3N3CCOCC3)CC2C1)n1cc(Cl)cn1 (centres unmarked) [Example 100, (4-chloro-1H-pyrazol-1-yl)(5-(4-fluoro-2-morpholinobenzyl)hexahydropyrrolo[3,4-c]pyrrol-2(1H)-yl)methanone] | ≥ 75 | ≥ 75 | 100 to 1000 | ≤ 100
6 | O=C(N1CC2CN(Cc3ccc(Cl)cc3N3CCCC3)CC2C1)n1cc(Cl)cn1 (centres unmarked) [Example 101, (4-chloro-1H-pyrazol-1-yl)(5-(4-chloro-2-(pyrrolidin-1-yl)benzyl)hexahydropyrrolo[3,4-c]pyrrol-2(1H)-yl)methanone] | ≥ 75 | ≥ 75 | 100 to 1000 | ≤ 100
7 | CC(=O)N1CCN(c2cc(Cl)ccc2CN2CC3CN(C(=O)n4cc(Cl)cn4)CC3C2)CC1 (centres unmarked) [Example 102, 1-(4-(5-chloro-2-((5-(4-chloro-1H-pyrazole-1-carbonyl)hexahydropyrrolo[3,4-c]pyrrol-2(1H)-yl)methyl)phenyl)piperazin-1-yl)ethan-1-one] | ≥ 75 | ≥ 75 | – | –
8 | O=C(N1CC2CN(Cc3ccc(F)cc3N3CCCC3)CC2C1)n1cc(Cl)cn1 (centres unmarked) [Example 103, (4-chloro-1H-pyrazol-1-yl)(5-(4-fluoro-2-(pyrrolidin-1-yl)benzyl)hexahydropyrrolo[3,4-c]pyrrol-2(1H)-yl)methanone] | ≥ 75 | ≥ 75 | ≤ 100 | ≤ 100
9 | CC1COCCN1c1cc(F)ccc1CN1CC2CN(C(=O)n3cc(Cl)cn3)CC2C1 (centres unmarked) [Example 104, (4-chloro-1H-pyrazol-1-yl)(5-(4-fluoro-2-(3-methylmorpholino)benzyl)hexahydropyrrolo[3,4-c]pyrrol-2(1H)-yl)methanone] | ≥ 75 | ≥ 75 | – | –
10 | CC1COCCN1c1cc(Cl)ccc1CN1CC2CN(C(=O)n3cc(Cl)cn3)CC2C1 (centres unmarked) [Example 105, (4-chloro-1H-pyrazol-1-yl)(5-(4-chloro-2-(3-methylmorpholino)benzyl)hexahydropyrrolo[3,4-c]pyrrol-2(1H)-yl)methanone] | ≥ 75 | ≥ 75 | – | –
11 | CC(C)c1ccc(CN2CC3CN(C(=O)n4cc(Cl)cn4)CC3C2)c(N2CCOCC2)c1 (centres unmarked) [Example 106, (4-chloro-1H-pyrazol-1-yl)(5-(4-isopropyl-2-morpholinobenzyl)hexahydropyrrolo[3,4-c]pyrrol-2(1H)-yl)methanone] | 50 to 75 | ≥ 75 | 1000 to 10000 | ≤ 100
12 | CC(=O)N1CCN(c2cc(F)ccc2CN2CC3CN(C(=O)n4cc(Cl)cn4)CC3C2)CC1 (centres unmarked) [Example 107, 1-(4-(2-((5-(4-chloro-1H-pyrazole-1-carbonyl)hexahydropyrrolo[3,4-c]pyrrol-2(1H)-yl)methyl)-5-fluorophenyl)piperazin-1-yl)ethan-1-one] | ≥ 75 | ≥ 75 | 100 to 1000 | ≤ 100
13 | CC(C)c1ccc(CN2CC3CN(C(=O)n4cc(Cl)cn4)CC3C2)c(N2CCCC2)c1 (centres unmarked) [Example 108, (4-chloro-1H-pyrazol-1-yl)(5-(4-isopropyl-2-(pyrrolidin-1-yl)benzyl)hexahydropyrrolo[3,4-c]pyrrol-2(1H)-yl)methanone] | 50 to 75 | ≥ 75 | 1000 to 10000 | 100 to 1000
14 | CC(=O)N1CCN(c2cc(C(C)C)ccc2CN2CC3CN(C(=O)n4cc(Cl)cn4)CC3C2)CC1 (centres unmarked) [Example 109, 1-(4-(2-((5-(4-chloro-1H-pyrazole-1-carbonyl)hexahydropyrrolo[3,4-c]pyrrol-2(1H)-yl)methyl)-5-isopropylphenyl)piperazin-1-yl)ethan-1-one] | 0 to 25 | ≥ 75 | 1000 to 10000 | ≤ 100
15 | O=C(N1CC2CN(Cc3ccc(C(F)(F)F)cc3N3CCCC3)CC2C1)n1cc(Cl)cn1 (centres unmarked) [Example 110, (4-chloro-1H-pyrazol-1-yl)(5-(2-(pyrrolidin-1-yl)-4-(trifluoromethyl)benzyl)hexahydropyrrolo[3,4-c]pyrrol-2(1H)-yl)methanone] | ≥ 75 | ≥ 75 | 100 to 1000 | ≤ 100
16 | O=C(N1CC2CN(Cc3ccc(Cl)cc3N3CCC4(CCOCC4)C3)CC2C1)n1cc(Cl)cn1 (centres unmarked) [Example 111, (4-chloro-1H-pyrazol-1-yl)(5-(4-chloro-2-(8-oxa-2-azaspiro[4.5]decan-2-yl)benzyl)hexahydropyrrolo[3,4-c]pyrrol-2(1H)-yl)methanone] | ≥ 75 | ≥ 75 | 1000 to 10000 | ≤ 100
17 | O=C(N1CCC2(CCN(Cc3cccc(Cl)c3)C2)C1)n1cc(Cl)cn1 (centres unmarked) [Example 113, (4-chloro-1H-pyrazol-1-yl)(7-(3-chlorobenzyl)-2,7-diazaspiro[4.4]nonan-2-yl)methanone] | ≥ 75 | ≥ 75 | ≤ 100 | 100 to 1000
18 | O=C(N1CCC2(CCN(Cc3ccccc3)C2)C1)n1cc(Cl)cn1 (centres unmarked) [Example 114, (7-benzyl-2,7-diazaspiro[4.4]nonan-2-yl)(4-chloro-1H-pyrazol-1-yl)methanone] | ≥ 75 | 50 to 75 | – | –
19 | O=C(N1CCC2(CCN(Cc3ccc(Cl)cc3)C2)C1)n1cc(Cl)cn1 (centres unmarked) [Example 115, (4-chloro-1H-pyrazol-1-yl)(7-(4-chlorobenzyl)-2,7-daizaspiro[4.4]nonan-2-yl)methanone] | ≥ 75 | ≥ 75 | 100 to 1000 | 100 to 1000
